The results in this text go back to ChEMBL document CHEMBL3588852, “Gastroprotective activity of ent-beyerene derivatives in mice: Effects on gastric secretion, endogenous prostaglandins and non-protein sulfhydryls” (Bioorg Med Chem Lett, 2015).

By ED50 is commonly meant the dose at which the effect has come halfway, by size or by number of responders. As a reminder, the IC50 is the point on the concentration scale where inhibition reaches its midpoint. What is called inhibition in vivo is the share of the control response that was lost under treatment.

For the first assay, the system named is Mus musculus. As to the kind of experiment: Gastroprotective activity in Swiss albino mouse model of HCl/EtOH-induced lesion assessed as gastric lesion index at 70 mg/kg, po dosed 50 mins before HCl/EtOH challenge and measured 1 hr post HCl/EtOH challenge (reference value: 42 +/- 1.9 mm). The assay is classed as functional, Stomach.
Conditions: not given
Take `COC(=O)[C@@H](N)CCCNC(=N)N[N+](=O)[O-]` [L-NAME]: the Activity is 42.7 mm.

The next assay relates to Mus musculus. As to the kind of experiment: Gastroprotective activity in Swiss albino mouse model of HCl/EtOH-induced lesion assessed as gastric lesion index at 100 mg/kg, po dosed 50 mins before HCl/EtOH challenge and measured 1 hr post HCl/EtOH challenge (reference value: 42 +/- 1.9 mm). The format is functional, Stomach.
Conditions: not given
In the case of `CC1(C)[C@@H](OC(=O)CCC(=O)O)CC[C@]2(C)[C@H]3C(=O)C=C4[C@@H]5C[C@@](C)(C(=O)O)CC[C@]5(C)CC[C@@]4(C)[C@]3(C)CC[C@@H]12` [CARBENOXOLONE], the Activity turned out to be 13.1 mm.

The next assay concerns Mus musculus. As to the kind of experiment: Gastroprotective activity in Swiss albino mouse model of HCl/EtOH-induced lesion assessed as inhibition of gastric lesions at 12.5 to 100 mg/kg, po dosed 50 mins before HCl/EtOH challenge and measured 1 hr post HCl/EtOH challenge. The assay is classed as functional. The note with it: Stomach.
Consider `C[C@]12C=C[C@@]3(CC[C@@H]4[C@@](C)(CO)CCC[C@@]4(C)[C@@H]3CC1)C2`, for which the ED50 came to 50 mg/kg and the inhibition entry was “Dose-dependent effect”.

The subject of a further assay is AGS. As to the kind of experiment: Cytotoxic activity against human AGS cells assessed as reduction in cell viability incubated for 48 hrs by MTT assay.
Conditions: not given
The format is cell-based. Background: Tetrazolium assays rely on reduction of a dye to a coloured formazan, in cell work by metabolically active cells.
On to `COc1cccc(/C=C/C(=O)OC[C@@]2(C)CCC[C@]3(C)[C@@H]2CC[C@@]24C=C[C@@](C)(CC[C@H]23)C4)c1`, for which the IC50 turned out to be 165 µM.

Take `C[C@]12C=C[C@@]3(CC[C@@H]4[C@@](C)(CO)CCC[C@@]4(C)[C@@H]3CC1)C2`: the IC50 is 19 µM.

`Cc1ccc(/C=C/C(=O)OC[C@@]2(C)CCC[C@]3(C)[C@@H]2CC[C@@]24C=C[C@@](C)(CC[C@H]23)C4)cc1`: the concentration for half-maximal inhibition (IC50) was found to be 39 µM.

On to `COc1ccccc1/C=C/C(=O)OC[C@@]1(C)CCC[C@]2(C)[C@@H]1CC[C@@]13C=C[C@@](C)(CC[C@H]12)C3`, for which the IC50 was 151 µM.

Take `CCCCCCCCCCCC(=O)OC[C@@]1(C)CCC[C@]2(C)[C@@H]1CC[C@@]13C=C[C@@](C)(CC[C@H]12)C3`: the half-maximal inhibitory concentration (IC50) was determined as 33 µM.

As for `Cc1c(OCC(F)(F)F)ccnc1C[S+]([O-])c1nc2ccccc2[nH]1` (stereo not drawn) [LANSOPRAZOLE], the IC50 was determined as 149 µM.

As to `C[C@]12C=C[C@@]3(CC[C@@H]4[C@@](C)(COC(=O)/C=C/c5ccccc5[N+](=O)[O-])CCC[C@@]4(C)[C@@H]3CC1)C2`, the 50% inhibitory concentration (IC50) amounted to 25 µM.

`CCCCCCCCCCCCCCCCCC(=O)OC[C@@]1(C)CCC[C@]2(C)[C@@H]1CC[C@@]13C=C[C@@](C)(CC[C@H]12)C3`: the half-inhibitory concentration (IC50) was 228 µM.

Consider `C[C@]12C=C[C@@]3(CC[C@@H]4[C@@](C)(COC(=O)/C=C/c5ccc(Cl)cc5)CCC[C@@]4(C)[C@@H]3CC1)C2`, for which the 50% inhibitory concentration (IC50) is 18 µM.

System in another assay: not listed separately
Nature of the assay: Cytotoxic activity against human fibroblasts assessed as reduction in cell viability incubated for 48 hrs by MTT assay. The note with it: Fibroblast. The format is cell-based.
For `COc1cccc(/C=C/C(=O)OC[C@@]2(C)CCC[C@]3(C)[C@@H]2CC[C@@]24C=C[C@@](C)(CC[C@H]23)C4)c1`, the IC50 is 289 µM.

As for `C[C@]12C=C[C@@]3(CC[C@@H]4[C@@](C)(CO)CCC[C@@]4(C)[C@@H]3CC1)C2`, the half-inhibitory concentration (IC50) was 31 µM.

For the compound `Cc1ccc(/C=C/C(=O)OC[C@@]2(C)CCC[C@]3(C)[C@@H]2CC[C@@]24C=C[C@@](C)(CC[C@H]23)C4)cc1`, the IC50 turned out to be 49 µM.

As to `COc1ccccc1/C=C/C(=O)OC[C@@]1(C)CCC[C@]2(C)[C@@H]1CC[C@@]13C=C[C@@](C)(CC[C@H]12)C3`, the IC50 is 311 µM.

As to `CCCCCCCCCCCC(=O)OC[C@@]1(C)CCC[C@]2(C)[C@@H]1CC[C@@]13C=C[C@@](C)(CC[C@H]12)C3`, the IC50 is 52 µM.

With `Cc1c(OCC(F)(F)F)ccnc1C[S+]([O-])c1nc2ccccc2[nH]1` (stereo not drawn) [LANSOPRAZOLE], the half-maximal inhibitory concentration (IC50) amounted to 291 µM.

`C[C@]12C=C[C@@]3(CC[C@@H]4[C@@](C)(COC(=O)/C=C/c5ccccc5[N+](=O)[O-])CCC[C@@]4(C)[C@@H]3CC1)C2`: the half-inhibitory concentration (IC50) came out at 38 µM.

On to `CCCCCCCCCCCCCCCCCC(=O)OC[C@@]1(C)CCC[C@]2(C)[C@@H]1CC[C@@]13C=C[C@@](C)(CC[C@H]12)C3`, for which the 50% inhibitory concentration (IC50) came out at 359 µM.

Regarding `C[C@]12C=C[C@@]3(CC[C@@H]4[C@@](C)(COC(=O)/C=C/c5ccc(Cl)cc5)CCC[C@@]4(C)[C@@H]3CC1)C2`, the 50% inhibitory concentration (IC50) is 29 µM.

In a further assay the test system is Mus musculus. As to the kind of experiment: Gastroprotective activity in Swiss albino mouse model of HCl/EtOH-induced lesion assessed as inhibition of gastric lesions at 100 mg/kg, po dosed 50 mins before HCl/EtOH challenge and measured 1 hr post HCl/EtOH challenge. The format is functional. The conditions noted are these: Stomach.
Take `C[C@]12C=C[C@@]3(CC[C@@H]4[C@@](C)(CO)CCC[C@@]4(C)[C@@H]3CC1)C2`: the inhibition in vivo at 100 mg/kg came to 79%.

The next assay has as its system Mus musculus. As to the kind of experiment: Gastroprotective activity in Swiss albino mouse model of HCl/EtOH-induced lesion assessed as inhibition of gastric lesions at 20 mg/kg, po dosed 50 mins before HCl/EtOH challenge and measured 1 hr post HCl/EtOH challenge. The format is functional. The conditions noted are these: Stomach.
In the case of `Cc1c(OCC(F)(F)F)ccnc1C[S+]([O-])c1nc2ccccc2[nH]1` (stereo not drawn) [LANSOPRAZOLE], the inhibition in vivo at 20 mg/kg was 57%.

The subject of another assay is Mus musculus. Nature of the assay: Gastroprotective activity in Swiss albino mouse model of HCl/EtOH-induced lesion assessed as inhibition of gastric lesions at 50 mg/kg, po dosed 50 mins before HCl/EtOH challenge and measured 1 hr post HCl/EtOH challenge. The note with it: Stomach. The assay is classed as functional.
In the case of `COc1cccc(/C=C/C(=O)OC[C@@]2(C)CCC[C@]3(C)[C@@H]2CC[C@@]24C=C[C@@](C)(CC[C@H]23)C4)c1`, the inhibition in vivo at 50 mg/kg worked out at 4%.

In the case of `C[C@]12C=C[C@@]3(CC[C@@H]4[C@@](C)(CO)CCC[C@@]4(C)[C@@H]3CC1)C2`, the inhibition in vivo at 50 mg/kg was 53%.

As for `Cc1ccc(/C=C/C(=O)OC[C@@]2(C)CCC[C@]3(C)[C@@H]2CC[C@@]24C=C[C@@](C)(CC[C@H]23)C4)cc1`, the inhibition in vivo at 50 mg/kg was 8%.

For `COc1ccccc1/C=C/C(=O)OC[C@@]1(C)CCC[C@]2(C)[C@@H]1CC[C@@]13C=C[C@@](C)(CC[C@H]12)C3`, the inhibition in vivo at 50 mg/kg worked out at 7%.

As to `CCCCCCCCCCCC(=O)OC[C@@]1(C)CCC[C@]2(C)[C@@H]1CC[C@@]13C=C[C@@](C)(CC[C@H]12)C3`, the inhibition in vivo at 50 mg/kg was 51%.

`Cc1c(OCC(F)(F)F)ccnc1C[S+]([O-])c1nc2ccccc2[nH]1` (stereo not drawn) [LANSOPRAZOLE]: the inhibition in vivo at 50 mg/kg was determined as 65%.

In the case of `C[C@]12C=C[C@@]3(CC[C@@H]4[C@@](C)(COC(=O)/C=C/c5ccccc5[N+](=O)[O-])CCC[C@@]4(C)[C@@H]3CC1)C2`, the inhibition in vivo at 50 mg/kg was found to be 14%.

With `CCCCCCCCCCCCCCCCCC(=O)OC[C@@]1(C)CCC[C@]2(C)[C@@H]1CC[C@@]13C=C[C@@](C)(CC[C@H]12)C3`, the inhibition in vivo at 50 mg/kg amounted to 44%.

As for `C[C@]12C=C[C@@]3(CC[C@@H]4[C@@](C)(COC(=O)/C=C/c5ccc(Cl)cc5)CCC[C@@]4(C)[C@@H]3CC1)C2`, the inhibition in vivo at 50 mg/kg amounted to 42%.
